According to patent publication US20250019346A1, “Salts of Ruxolitinib and Crystalline Forms Thereof” (Apotex Inc., priority 2021, published 2025):
Like-named read-outs stand apart in the source and are kept apart here.

What was measured:
[1] = uncapped samples, 40° C./75% RH
Description: PXRD diffractograms were recorded on a Bruker D8 Discover powder X-ray diffractometer (Bruker AXS LLC, Karlsruhe, Germany). The generator was a Incoatec Microfocus Source (IμS) Cu tube (λ=1.54060 Å) with a voltage of 50 kV and current of 1.00 mA, using a divergence slit of 0.1 mm and collimator of 2.0 mm. For each sample, two frames were collected using a still scan with a PILATUS3 R 100K-A detector at the distance of 294.2 mm from the sample. Raw data were evaluated using the program DIFFRAC.EVA (Bruker AXS LLC, Karlsruhe, Germany).

[2] = Comparative intrinsic dissolution testing (Wood apparatus); type: physicochemical; settings: 900 mL deionized water, 75 rpm, sample compressed at 1.5 metric tons for 1 minute
Description: Intrinsic dissolution rate (IDR) measurements were performed using a Wood apparatus. Samples were prepared by compressing 250-300 mg sample at 1.5 metric tons for 1 minute. A dissolution medium consisting of 900 mL deionized water, and rotation speed of 75 rpm, was used for each experiment.

[3] = per CDER review, NDA 202192; cited from earlier work
[4] = pH values 1.2, 4.5 and 6.8

| Compound | Change in the crystalline form (PXRD) ([1]; at least 5 months) | Intrinsic Dissolution Rate [2] [mg min^−1 cm^−2] | also measured |
| --- | --- | --- | --- |
| N#CCC(C1CCCC1)n1cc(-c2ncnc3[nH]ccc23)cn1.O=S(=O)(O)c1cccc2c(S(=O)(=O)O)cccc12 (stereo not shown) [Ruxolitinib napadisylate Form APO-I] | no change in the crystalline form occurred |  |  |
| CC1=CC(=O)NS(=O)(=O)O1.N#CCC(C1CCCC1)n1cc(-c2ncnc3[nH]ccc23)cn1 (stereo not shown) [Ruxolitinib acesulfamate Form APO-II] | no change in the crystalline form occurred | 0.0767 |  |
| N#CC[C@H](C1CCCC1)n1cc(-c2ncnc3[nH]ccc23)cn1 [Ruxolitinib phosphate] |  | 0.0545 | Biopharmaceutics Classification System (BCS) class [3]: Class I; Permeability [3]: high permeability; Solubility [3]: high solubility |
| N#CCC(C1CCCC1)n1cc(-c2ncnc3[nH]ccc23)cn1.O=S(=O)(O)CCS(=O)(=O)O (stereo not shown) [Ruxolitinib edisylate Form APO-I] | no change in the crystalline form occurred | 0.1711 |  |
| CC1=CC(=O)NS(=O)(=O)O1.N#CC[C@H](C1CCCC1)n1cc(-c2ncnc3[nH]ccc23)cn1 [Ruxolitinib acesulfamate Form APO-I] |  | 0.2261 | Change in the crystalline form (PXRD) ([1]; 8 weeks): no change in the crystalline form occurred |
| CS(=O)(=O)O.N#CC[C@H](C1CCCC1)n1cc(-c2ncnc3[nH]ccc23)cn1 [Ruxolitinib mesylate Form APO-I] |  |  | Change in the crystalline form (PXRD) ([1]; at least 8 months): no change in the crystalline form occurred; Solubility [4]: high solubility |
